Patent publication EP0338634B1, “Viper venom polypeptides and genetic expression” (Merck & Co., Inc., priority 1988, dated 1989)
Bridge positions count the residues as written; N and C are the ends. Square brackets hold non-standard residues; d marks the D form. Ends that are not written are not given here. Peptide text beside a SMILES is read from it. Met(O) = CS(=O)CC[C@H](N)C(=O)O

Molecular target: human platelet aggregation (Homo sapiens, UniProt P05106+P08514)
Experiment: Platelet aggregation assay for synthetic echistatin and analogs (chronolog aggregometer)
Type: cell-based
Conditions: human platelet aggregation; Table 5; read-out: IC₅₀(µM)(95% CONFIDENCE LIMITS)
Protocol: Platelet aggregation was measured at 37°C in a chronolog aggregometer. The reaction mixture contained washed platelets (2 x 10⁸/ml), fibrinogen ([…]), Ca²⁺ (1 mM), and the platelet aggregation inhibitor fraction to be tested The aggregation was initiated by adding […] ADP 1 min after the other components had been added. The reaction was allowed to proceed for at least 2 min. The extent of inhibition of aggregation was expressed as the percentage of the rate of aggregation observed in the absence of inhibitor. […]
The concentration of peptide necessary to inhibit the rate of human platelet aggregation by 50% (IC₅₀) was determined using platelets from 2-4 donors. Determinations were performed in duplicate for each donor.

Chain of human platelet aggregation (P08514 32-1039): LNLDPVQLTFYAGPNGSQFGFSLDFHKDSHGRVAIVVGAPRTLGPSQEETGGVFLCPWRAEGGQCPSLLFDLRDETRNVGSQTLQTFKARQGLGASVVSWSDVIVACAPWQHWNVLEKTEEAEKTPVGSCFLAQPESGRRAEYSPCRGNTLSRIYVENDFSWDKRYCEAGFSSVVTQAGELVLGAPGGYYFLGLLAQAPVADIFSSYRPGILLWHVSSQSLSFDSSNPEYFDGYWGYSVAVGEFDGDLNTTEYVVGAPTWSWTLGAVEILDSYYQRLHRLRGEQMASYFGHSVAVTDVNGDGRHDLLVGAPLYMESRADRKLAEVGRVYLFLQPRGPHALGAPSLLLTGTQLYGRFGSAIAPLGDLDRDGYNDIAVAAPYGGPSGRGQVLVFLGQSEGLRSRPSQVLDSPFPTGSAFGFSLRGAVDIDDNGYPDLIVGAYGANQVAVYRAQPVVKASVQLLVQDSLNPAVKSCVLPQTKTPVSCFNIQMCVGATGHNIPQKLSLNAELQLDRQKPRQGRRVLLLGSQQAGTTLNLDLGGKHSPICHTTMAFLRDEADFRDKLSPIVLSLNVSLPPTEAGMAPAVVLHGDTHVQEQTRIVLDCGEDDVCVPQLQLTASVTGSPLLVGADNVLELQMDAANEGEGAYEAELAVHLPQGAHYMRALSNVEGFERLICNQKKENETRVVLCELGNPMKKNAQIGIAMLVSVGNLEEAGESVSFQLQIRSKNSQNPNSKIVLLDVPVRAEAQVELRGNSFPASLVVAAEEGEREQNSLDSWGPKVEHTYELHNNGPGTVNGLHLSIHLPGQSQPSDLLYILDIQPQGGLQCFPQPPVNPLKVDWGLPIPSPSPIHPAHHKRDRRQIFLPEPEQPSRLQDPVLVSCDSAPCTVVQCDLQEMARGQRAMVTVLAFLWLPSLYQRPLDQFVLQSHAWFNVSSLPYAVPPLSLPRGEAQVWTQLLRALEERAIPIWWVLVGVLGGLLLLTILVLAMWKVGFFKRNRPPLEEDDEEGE
Chain of human platelet aggregation (P05106 27-788): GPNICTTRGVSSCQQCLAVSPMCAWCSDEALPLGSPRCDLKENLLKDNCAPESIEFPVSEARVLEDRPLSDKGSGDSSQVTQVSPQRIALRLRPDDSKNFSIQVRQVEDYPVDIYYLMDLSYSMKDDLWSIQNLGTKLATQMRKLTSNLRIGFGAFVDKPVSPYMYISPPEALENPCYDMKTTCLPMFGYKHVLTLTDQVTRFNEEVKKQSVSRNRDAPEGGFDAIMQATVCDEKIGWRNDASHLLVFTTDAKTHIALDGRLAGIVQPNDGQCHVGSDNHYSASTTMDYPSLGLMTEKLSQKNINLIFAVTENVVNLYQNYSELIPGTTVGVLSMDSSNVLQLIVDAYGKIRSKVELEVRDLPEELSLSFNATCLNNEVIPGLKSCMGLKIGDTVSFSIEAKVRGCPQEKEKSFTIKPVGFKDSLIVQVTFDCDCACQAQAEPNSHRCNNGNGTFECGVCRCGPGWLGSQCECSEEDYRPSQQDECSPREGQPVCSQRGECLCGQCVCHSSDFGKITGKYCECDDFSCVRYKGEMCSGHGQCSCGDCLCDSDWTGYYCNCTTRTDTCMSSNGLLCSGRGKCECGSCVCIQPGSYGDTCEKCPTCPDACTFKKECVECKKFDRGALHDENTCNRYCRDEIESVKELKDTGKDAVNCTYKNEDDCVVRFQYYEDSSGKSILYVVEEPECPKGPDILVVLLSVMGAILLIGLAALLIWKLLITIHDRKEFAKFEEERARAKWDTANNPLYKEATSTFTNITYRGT

Going from “H-ECESGPCCRNCKFLKEGTICKRARGDDMDDYCNGKTCDCPR-NH2 (disulfide 2-11, 7-32, 8-37, 20-39) [Example 16, (1-41)-echistatin amide]” to “H-ECESGPCCRNCKFLKEGTICKRARGDDFDDYCNGKTCDCPRNPHKGPAT-OH (disulfide 2-11, 7-32, 8-37, 20-39) [Example 14, phe 28-echistatin]”, the IC50 falls from 0.066 µM to 0.038 µM (1.7-fold).

First: H-ECESGPCCRNCKFLKEGTICKRARGDWMDDYCNGKTCDCPRNPHKGPAT-OH (disulfide 2-11, 7-32, 8-37, 20-39) [Example 11, trp 27-echistatin]
Second: H-ECESGPCCRNCKFLKEGTICKRARGDDMDDYCNGKTCDCPRNP-NH2 (disulfide 2-11, 7-32, 8-37, 20-39) [Example 17, (1-43)-echistatin amide]
The IC50 of the first is 4.8-fold lower: 0.017 µM for the first, 0.081 µM for the second.

First: ECESGPCCRNCKFLKEGTICKRARGDD[Met(O)]DDYCNGKTCDCPRNPHKGPAT (disulfide 2-11, 7-32, 8-37, 20-39) [Example 18, met SO 28-echistatin]
Second: CC[C@H](C)[C@@H]1NC(=O)[C@H]([C@@H](C)O)NC(=O)CNC(=O)[C@H](CCC(=O)O)NC(=O)[C@H](CCCCN)NC(=O)[C@H](CC(C)C)NC(=O)[C@H](Cc2ccccc2)NC(=O)[C@H](CCCCN)NC(=O)[C@@H]2CSSC[C@H](NC(=O)[C@@H](N)CCC(=O)O)C(=O)N[C@@H](CCC(=O)O)C(=O)N[C@@H](CO)C(=O)NCC(=O)N3CCC[C@H]3C(=O)N[C@H]3CSSC[C@@H]4NC(=O)[C@H](Cc5ccc(O)cc5)NC(=O)[C@H](CC(=O)O)NC(=O)[C@H](CC(=O)O)NC(=O)[C@H](CCSC)NC(=O)[C@H](CC(=O)O)NC(=O)[C@H](CC(=O)O)NC(=O)CNC(=O)[C@H](CCCNC(=N)N)NC(=O)[C@H](C)NC(=O)[C@H](CCCNC(=N)N)NC(=O)[C@H](CCCCN)NC(=O)[C@H](CSSC[C@@H](C(=O)O)NC(=O)[C@H](CC(=O)O)NC(=O)[C@H](CSSC[C@H](NC3=O)C(=O)N[C@@H](CCCNC(=N)N)C(=O)N[C@@H](CC(N)=O)C(=O)N2)NC(=O)[C@H]([C@@H](C)O)NC(=O)[C@H](CCCCN)NC(=O)CNC(=O)[C@H](CC(N)=O)NC4=O)NC1=O [Example 20, (1-39)-echistatin] (H-ECESGPCCRNCKFLKEGTICKRARGDDMDDYCNGKTCDC-OH; disulfide 2-11, 7-32, 8-37, 20-39)
The IC50 of the first is 9.1-fold lower: 0.088 µM for the first, 0.8 µM for the second. The first is the more potent here.

Compared with `CC[C@H](C)[C@@H]1NC(=O)[C@H]([C@@H](C)O)NC(=O)CNC(=O)[C@H](CCC(=O)O)NC(=O)[C@H](CCCCN)NC(=O)[C@H](CC(C)C)NC(=O)[C@H](Cc2ccccc2)NC(=O)[C@H](CCCCN)NC(=O)[C@@H]2CSSC[C@H](NC(=O)[C@@H](N)CCC(=O)O)C(=O)N[C@@H](CCC(=O)O)C(=O)N[C@@H](CO)C(=O)NCC(=O)N3CCC[C@H]3C(=O)N[C@H]3CSSC[C@@H]4NC(=O)[C@H](Cc5ccc(O)cc5)NC(=O)[C@H](CC(=O)O)NC(=O)[C@H](CC(=O)O)NC(=O)[C@H](CC(C)C)NC(=O)[C@H](CC(=O)O)NC(=O)[C@H](CC(=O)O)NC(=O)CNC(=O)[C@H](CCCNC(=N)N)NC(=O)[C@H](C)NC(=O)[C@H](CCCNC(=N)N)NC(=O)[C@H](CCCCN)NC(=O)[C@H](CSSC[C@@H](C(=O)N5CCC[C@H]5C(=O)N[C@@H](CCCNC(=N)N)C(=O)N[C@@H](CC(N)=O)C(=O)N5CCC[C@H]5C(=O)N[C@@H](Cc5c[nH]cn5)C(=O)N[C@@H](CCCCN)C(=O)NCC(=O)N5CCC[C@H]5C(=O)N[C@@H](C)C(=O)N[C@H](C(=O)O)[C@@H](C)O)NC(=O)[C@H](CC(=O)O)NC(=O)[C@H](CSSC[C@H](NC3=O)C(=O)N[C@@H](CCCNC(=N)N)C(=O)N[C@@H](CC(N)=O)C(=O)N2)NC(=O)[C@H]([C@@H](C)O)NC(=O)[C@H](CCCCN)NC(=O)CNC(=O)[C@H](CC(N)=O)NC4=O)NC1=O` [Example 13, leu 28-echistatin], “H-ECESGPCCRNCKFLKEGTICKRARGDFLDDYCNGKTCDCPRNPHKGPAT-OH (disulfide 2-11, 7-32, 8-37, 20-39) [Example 10, phe 27, leu 28-echistatin]” is 2.1-fold lower in IC50: 0.034 µM for the first, 0.016 µM for the second. The second is the more potent here.

Going from “H-ECESGPCCRNCKFLKEGTICKRPRGDFLDDYCNGKTCDCPRNPHKGPAT-OH (disulfide 2-11, 7-32, 8-37, 20-39) [Example 12, pro 23, phe 27, leu 28-echistatin]” to `CC[C@H](C)[C@@H]1NC(=O)[C@H]([C@@H](C)O)NC(=O)CNC(=O)[C@H](CCC(=O)O)NC(=O)[C@H](CCCCN)NC(=O)[C@H](CC(C)C)NC(=O)[C@H](Cc2ccccc2)NC(=O)[C@H](CCCCN)NC(=O)[C@@H]2CSSC[C@H](NC(=O)[C@@H](N)CCC(=O)O)C(=O)N[C@@H](CCC(=O)O)C(=O)N[C@@H](CO)C(=O)NCC(=O)N3CCC[C@H]3C(=O)N[C@H]3CSSC[C@@H]4NC(=O)[C@H](Cc5ccc(O)cc5)NC(=O)[C@H](CC(=O)O)NC(=O)[C@H](CC(=O)O)NC(=O)[C@H](CCSC)NC(=O)[C@H](CC(=O)O)NC(=O)[C@H](CC(=O)O)NC(=O)CNC(=O)[C@H](CCCNC(=N)N)NC(=O)[C@H](C)NC(=O)[C@H](CCCNC(=N)N)NC(=O)[C@H](CCCCN)NC(=O)[C@H](CSSC[C@@H](C(N)=O)NC(=O)[C@H](CC(=O)O)NC(=O)[C@H](CSSC[C@H](NC3=O)C(=O)N[C@@H](CCCNC(=N)N)C(=O)N[C@@H](CC(N)=O)C(=O)N2)NC(=O)[C@H]([C@@H](C)O)NC(=O)[C@H](CCCCN)NC(=O)CNC(=O)[C@H](CC(N)=O)NC4=O)NC1=O` [Example 19, (1-39)-echistatin amide] (H-ECESGPCCRNCKFLKEGTICKRARGDDMDDYCNGKTCDC-NH2; disulfide 2-11, 7-32, 8-37, 20-39), the IC50 rises from 0.026 µM to 0.327 µM (13-fold).

First: H-ECESGPCCRNCKFLKEGTICKRARGDFMDDYCNGKTCDCPRNPHKGPAT-OH (disulfide 2-11, 7-32, 8-37, 20-39) [Example 9, phe 27-echistatin]
Second: H-ECESGPCCRNCKFLKEGTICKNARGDFLDDYCNGKTCDCPRNPHKGPAT-OH (disulfide 2-11, 7-32, 8-37, 20-39) [Example 15, asn 22, phe 27, leu 28-echistatin]
The IC50 of the first is 2.9-fold lower: 0.013 µM for the first, 0.038 µM for the second. The first is the more potent here.

Same assay, conditions: rate of human platelet aggregation; platelets from 2-4 donors, duplicate; Table 4; read-out: IC₅₀(µM)(95% CONFIDENCE LIMITS)

In the case of “H-ECESGPCCRNCKFLKEGTICKRARGDDMDDYCNGKTCDCPRNPHKGPAT-OH (disulfide 2-11, 7-32, 8-37, 20-39) [Synthetic Echistatin, echistatin]”, the IC50 is reported as 0.033 µM.
